Assay results: PubChem BioAssay AID623878 (Vanderbilt Specialized Chemistry Center, 2012)
Active and inactive are the calls of the source.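 The calls were made as follows: active = glutamate fold shift at least 2 as enhancer, or at most 0.5 as blocker, actives on both sides; inactive = the rest.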

Target: Metabotropic glutamate receptor 2 (Rattus norvegicus) (UniProt P31421)
Assay: glutamate response shift at rat mGlu2 – cell-based, thallium flux, glutamate fold shift, selectivity assay for mGlu4 PAM project, SAR follow-up (AID 623878)
Conditions: rat mGlu2 cells, at 10 µM

Chain of Metabotropic glutamate receptor 2 (Rattus norvegicus) (P31421 whole entry, looked up): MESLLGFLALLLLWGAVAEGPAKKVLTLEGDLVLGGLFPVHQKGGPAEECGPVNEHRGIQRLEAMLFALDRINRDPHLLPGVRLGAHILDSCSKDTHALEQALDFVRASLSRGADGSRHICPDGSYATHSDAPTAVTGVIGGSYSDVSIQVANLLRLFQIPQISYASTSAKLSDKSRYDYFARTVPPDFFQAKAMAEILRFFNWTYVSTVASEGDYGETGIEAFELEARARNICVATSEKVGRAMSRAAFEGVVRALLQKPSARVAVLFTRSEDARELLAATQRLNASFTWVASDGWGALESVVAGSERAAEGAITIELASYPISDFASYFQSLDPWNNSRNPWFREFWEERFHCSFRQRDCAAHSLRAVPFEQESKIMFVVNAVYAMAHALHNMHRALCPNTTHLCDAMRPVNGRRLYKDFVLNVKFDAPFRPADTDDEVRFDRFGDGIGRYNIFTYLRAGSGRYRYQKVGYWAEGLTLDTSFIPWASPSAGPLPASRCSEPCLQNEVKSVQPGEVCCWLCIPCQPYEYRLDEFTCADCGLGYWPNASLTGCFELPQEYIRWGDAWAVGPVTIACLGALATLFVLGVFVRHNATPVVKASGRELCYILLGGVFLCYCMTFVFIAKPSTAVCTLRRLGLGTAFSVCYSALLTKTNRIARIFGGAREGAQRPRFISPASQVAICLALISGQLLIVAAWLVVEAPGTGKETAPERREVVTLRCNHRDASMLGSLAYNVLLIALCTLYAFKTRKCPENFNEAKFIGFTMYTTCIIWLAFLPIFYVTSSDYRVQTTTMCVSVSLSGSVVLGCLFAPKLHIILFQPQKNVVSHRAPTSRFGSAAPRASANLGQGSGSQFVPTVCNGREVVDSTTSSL

fold shift: 0.98 (inactive)
SMILES: O=C(Nc1cccc(Cl)c1)c1ccccn1
